# Earlier results, collected in patent publication US20060074053A1, “Ophthalmic solution containing quinolone antimicrobial compound” (SANTEN PHARMACEUTICAL CO., LTD., priority 2003, published 2006).
# Settings: after instillation of ciprofloxacin-containing ophthalmic solution; Am. J. Ophthalmol., 117, pp 258-259 (1994)
smiles,measurement,value
O=C(O)c1cn(C2CC2)c2cc(N3CCNCC3)c(F)cc2c1=O [ciprofloxacin],precipitate on the surface of the eyes after instillation,liberated as a precipitate on the surface of the eyes (corneal epithelium)
